Drawing on PubChem BioAssay AID720570 (Broad Institute, 2013), this text covers AC35 for 32 compounds.

For this assay, the system named is TC71 Ewing sarcoma viability, CellTiter-Glo ATP, 72 h. As to the kind of experiment: TC71 Ewing sarcoma cell killing, confirmation, luminescence, cherry-picked samples, retest (AID 720570).

For the compound `COc1cc2c(cc1NC(=O)CN(C)Cc1ccc(OC)c(OC)c1)oc1ccccc12`, the AC35 was 14.5 µM.

Turning to `Cc1[nH][nH]c(=O)c1C(c1c(C)[nH][nH]c1=O)c1cn(Cc2ccc(Cl)c(Cl)c2)c2ccccc12`, the AC35 was 11.3 µM.

As for `COc1ccc(NC(=O)N2CCCCN3[C@@H](CO)[C@H](c4ccc(C5=CCCCC5)cc4)[C@@H]3C2)cc1`, the AC35 is 23.3 µM.

As to `COc1ccc(C2=NNC(=Nc3cc(S(=O)(=O)N(C)C)ccc3C)SC2)c(OC)c1`, the AC35 was 11.9 µM.

Take `C[C@H]1CN([C@@H](C)CO)C(=O)Cc2cc(NC(=O)C3CC3)ccc2O[C@H]1CN(C)S(=O)(=O)c1ccc(Cl)cc1`: the AC35 was 17.3 µM.

Take `CCc1cccc2c(C(=O)CN3C(=O)NC4(CCCCC4)C3=O)c[nH]c12`: the AC35 is 4.29 µM.

As to `CN1C(=O)c2cc(NC(=O)c3ccc(C(F)(F)F)cc3)ccc2OC[C@@H]2O[C@@H](CC(=O)NC3Cc4ccccc4C3)CC[C@H]21`, the AC35 was 4.86 µM.

On to `CO[C@H]1CN(C)C(=O)c2cc(NC(=O)NC(C)C)ccc2OC[C@H](C)N(Cc2ccc(-c3ccccn3)cc2)C[C@@H]1C`, for which the AC35 is 20.8 µM.

As to `C[C@@H]1O[C@@H](O[C@H]2C[C@@H](O)[C@]3(CO)[C@@H]4C(CC[C@]3(O)C2)[C@@]2(O)CC[C@H](C3COC(=O)C3)[C@@]2(C)C[C@H]4O)[C@H](O)[C@H](O)[C@H]1O` (some centres not stated), the AC35 is 6.91 µM.

Regarding `COc1ccc(C2c3cc4c(cc3OC(NNC(N)=O)C2C)OCO4)cc1` (configuration not stated), the AC35 was 12 µM.

For `O=C(NCc1ccc(F)cc1)N1[C@H]2CC[C@@H]1C=C(c1ccc(F)cc1OCc1ccccc1)C2`, the AC35 is 13.9 µM.

On to `CC(=NNc1ccc2ccccc2n1)c1ccccn1`, for which the AC35 was 1.57 µM.

For `CCC1=Nc2cc(C(=O)NCC3CCCO3)ccc2Sc2ccc(Br)cc21` (configuration not stated), the AC35 is 6.83 µM.

With `C[C@]12CC[C@H](O)C[C@H]1CC[C@@H]1[C@@H]2CC[C@]2(C)[C@@H](C3=CC(=O)OC3)CC[C@]12O`, the AC35 was 2.11 µM.

Regarding `Cn1ccc2cc(-c3ccc4ncnc(NCc5cccs5)c4c3)ccc21`, the AC35 was 5.67 µM.

Take `CC1(C)Oc2cc3oc(-c4cc(O)cc(O)c4)cc3cc2CC1O` (configuration not stated): the AC35 was 12.5 µM.

For the compound `COc1ccc(-c2nc3c(s2)CCc2onc(-c4ccc(OC)cc4)c2-3)cc1`, the AC35 was 13.3 µM.

For the compound `COC(=O)C[C@@H]1CC[C@@H]2[C@H](COc3ccc(NC(=O)c4cc(C)on4)cc3C(=O)N2C)O1`, the AC35 was 12 µM.

Turning to `C=C(C(=O)c1ccccc1)C(C)C(=C)C(=O)c1ccccc1`, the AC35 is 11.1 µM.

On to `N#CC(=C1C=CC(=NO)C(Cl)=C1)c1ccccc1`, for which the AC35 is 6.4 µM.

With `CN1c2ccc(-c3ccc(C#N)cc3)cc2[C@H]2[C@H](CCN2S(=O)(=O)c2cccc(F)c2)[C@@H]1CO`, the AC35 is 5.53 µM.

Take `O=C(NCc1cccnc1)C1Cc2c(-c3ccc(Cl)cc3)ccnc2O1` (configuration not stated): the AC35 was 13.2 µM.

For the compound `O=C1c2ccccc2C(=O)N1CCCCNc1ccccc1`, the AC35 is 5.25 µM.

In the case of `COc1cc2c(OC(C)=O)c3c(c(-c4ccc5c(c4)OCO5)c2cc1OC)C(=O)OC3`, the AC35 is 3.57 µM.

As for `N#C[C@H]1[C@H](c2ccc(-c3ccccc3F)cc2)[C@@H](CO)N1C(=O)Cc1ccccc1`, the AC35 is 6.75 µM.

Turning to `COc1ccc(S(=O)(=O)Nc2ccc3c(c2)C(=O)N([C@H](C)CO)C[C@@H](C)[C@@H](CN(C)Cc2ccc(C(=O)Nc4ccccc4N)cc2)O3)cc1`, the AC35 is 18.5 µM.

Turning to `CCCNC(=O)N1[C@H](C#N)[C@H](c2ccc(C#Cc3cccc(F)c3)cc2)[C@H]1CO`, the AC35 is 16.1 µM.

For the compound `O=C(O)c1ccc(N/N=C/c2c(F)cccc2Cl)cc1`, the AC35 was 3.26 µM.

On to `O=C(Nc1ccc(Br)cc1)c1ccc(F)c(S(=O)(=O)N2CCN(c3ccccn3)CC2)c1`, for which the AC35 is 18.2 µM.

With `COc1ccc(C(=O)NCCNc2nc3cc(C)cc(C)c3cc2C#N)c(OC)c1`, the AC35 is 15.9 µM.

As to `Cc1c(Cl)cccc1NC(=O)CCC(=O)N/N=C/c1ccc[nH]1`, the AC35 was 4.44 µM.

In the case of `C[C@@H]1CN([C@H](C)CO)C(=O)Cc2cc(N(C)C)ccc2O[C@H]1CN(C)Cc1ccc(C(=O)Nc2ccccc2N)cc1`, the AC35 was 13.6 µM.
